System: rat model of MRMT-1 induced bone cancer pain
Settings: in vivo

CN1CC[C@]23c4c5ccc(O)c4O[C@H]2[C@@H](O)C=C[C@H]3[C@H]1C5 [Morphine]
paw withdrawal threshold (allodynia induced by bone cancer): reversal of deficit in paw withdrawal threshold

Reference: patent publication US11975055B2 (priority 2018, dated 2024)
